This is an account of results in patent US6906078B2, “Method of using (H+/K+) ATPase inhibitors as antiviral agents” (Pharmacia Corporation, priority 1994, dated 2005).

Molecules are shown by their SMILES. Read-outs that look alike come from different tables or passages of the source.

The subject of one series is HCMV (strain AD169). The series is described as follows: Antiviral assay: HCMV antigen ELISA in infected human foreskin fibroblasts (MRHF). It is filed as cell-based, human cytomegalovirus. Particulars: Human betaherpesvirus 5, Fibroblast; MRHF cells, HCMV AD169, moi 0.2, 96 hours; read-out: HCMV cell EC50. The source says: These complimentary assays tested the ability of a compound to inhibit the production of new virus and the toxicity of the compound to the host cells. It was important that both assays be performed simultaneously in order to compare the results directly since, toxicity may indirectly reduce viral yield.
Viral yield was estimated by measuring the amount of a viral antigen produced 4 days post infection with a monoclonal antibody to an abundant “immediate early” viral protein. An enzyme-linked (horseradish peroxidase) secondary antibody specific to the primary (mouse) antibody was used to measure the amount of viral antigen. Test compounds were diluted to 2-times the desired final concentration in DMEM+5% FBS. One hundred microliters of this solution was placed in each well of a 96-well plate. This was performed once for the antiviral 96-well plate and again for a cytotoxicity plate. Two controls were also included for both plates; a no drug control and a ganciclovir control. Ganciclovir was included because it has known antiviral activity for HCMV. All cells were prepared by harvesting human foreskin fibroblasts, MRHF, with trypsin and re-suspending at a concentration of 5×10^5 cells per ml in DMEM. Infected cells were prepared by infecting these with HCMV (strain AD169) at a multiplicity of infection=0.2. One hundred microliters of uninfected cells (5×10^4 cells) were added to the appropriate wells of the cytotoxicity plate. In a similar manner 100 μl of infected cells (5×10^4 cells) were added to the appropriate wells of the antiviral plate. Additionally, uninfected cells not treated with test compound were included as controls on the antiviral plate. Plates were incubated for 96 hours at 37° C. in 5% CO2 atmosphere and processed to measure the amount of viral antigen and toxicity.
The following was performed on the antiviral plate only. Media was removed and cells were fixed with 1:1 acetone:methanol for 15 minutes at −20° C. Fixative was removed and cells were washed once with PBS containing 0.05% Tween20. In order to block nonspecific binding of antibodies each well was incubated with PBS containing 3% (w/v) bovine serum albumin (BSA) for 1 hour at 22° C. The blocking solution was removed and the cells were washed once with PBS containing 0.05% Tween20 before incubating with 1:100 dilution of primary antibody in PBS containing 3% BSA for 2 hours at 22° C. The primary antibody was a monoclonal antibody (mouse source) specific to the immediate early nuclear antigen of HCMV and was commercially available (Dupont). The 10 antibody solution was removed and the plate was rinsed 5 times with PBS containing 1% (v/v) Triton X-100 (PBST) before incubating with secondary antibody diluted 1:1000 in PBS containing 3% BSA for 2 hours at 22° C. The secondary antibody (goat source) recognized the murine-specific determinants of the 1° antibody and was covalently linked to horseradish peroxidase (Sigma). The plate was rinsed 5 times with PBST and once with deionized water before adding 100 μl TMB substrate solution and incubating 30 minutes at 22° C. The reaction was stopped by adding 100 μL of phosphoric acid and the OD at 450 nm recorded. TMB (3,3′,5,5′ tetramethylbenzidine) was the substrate for the horseradish peroxidase linked to the 2° antibody. […] Antiviral activity was calculated by comparing the amount of viral antigen produced in drug treated wells with that produced in wells absent of drug.

The test system of series [1] is gastric acid secretion. The series is described as follows: Inhibition of gastric acid secretion in gastric fistula beagle dogs (histamine-stimulated). Particulars: Canis lupus familiaris, 4 h, histamine-stimulated, four-hour period, read-out: Gastric-Fistula Beagle % Inhibition (3 mg/kg dose). It is filed as in vivo. An outline of the steps:
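Conscious, 18 h-fasted female beagles with gastric (or duodenal) cannulas received compound i.v., i.g. or i.d. after a 30-min basal period, then 4 h i.v. histamine dihydrochloride at 15 mcg/kg/h. Gastric volume, acid concentration and total acid output collected every 30 min; percent inhibition versus controls, ED50 from dose-response curves.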

For series [2], the system named is gastric acid secretion. Briefly: Inhibition of gastric acid secretion in meal-stimulated Pavlov pouch dog. It is filed as in vivo, beagle dogs. The note with it: 3 mg/kg, four-hour period. The procedure:
Adult female beagle dogs weighing 6 to 10 kilograms were obtained from Laboratory Research Enterprises (Kalamazoo, Mich.) or from Hazelton Research Animals (Cumberland, Va.). Surgical implantation of a Thomas-type gastric cannula into an innervated Pavlov pouch of each dog was performed by the method reported by L. Burrows et al., J. Surgical Res., 4, 147 (1964). After recovery from surgery, the dogs were trained to stand quietly, fully conscious, in Pavlov-type dog restraining slings. All dogs were deprived of food, but not water, for 24 hours prior to each assay. Basal acid secretion was measured by collecting from the cannulas for 30 minutes before dosing with a test compound. Solutions of the test compounds in iso-osmotic phosphate buffer (pH 7.4) were given either intravenously or directly into the Pavlov pouch. After 30 minutes the pouch was drained. The dogs were then fed 320 grams of dog food and gastric acid secretions were collected each half hour for four hours. Controls were determined in the same way except that only food (i.e., no test compound) was administered.
Data were analyzed for three different variables: volume of gastric juice, acid concentration, and total acid output. Percent inhibition for the four-hour experimental period was determined for each parameter by comparison with 3 to 4 controls. Estimates of ED50 were determined from dose response curves.

As usually defined, the melting point is the temperature of the solid-liquid transition. The term EC50 denotes the midpoint of the concentration-response curve. In the case of `Nc1ccccc1C[S+]([O-])c1nc2cc(Cl)ccc2[nH]1` (stereo not shown) [Example 43, 2-[[(5-Chloro-1H-benzimidazol-2-yl)sulfinyl]-methyl]benzenamine], the melting point lay in the range of 165 to 166 °C. In addition, the EC50 with HCMV (strain AD169) amounted to 23 µM.

For `COc1ccc2[nH]c([S+]([O-])Cc3c(N)cc(C)c(OC)c3C)nc2c1` (stereo not shown) [Example 78, 2-[[(5-Methoxy-1H-benzimidazol-2-yl)sulfinyl]methyl]-4-methoxy-3,5-dimethylbenzenamine], the melting point fell in the range of 149 to 155 °C. Moreover, in the series with HCMV (strain AD169), the EC50 is 22 µM. Further, the inhibition in vivo at 3 mg/kg in the series on gastric acid secretion [1] (intraduodenal, 3 mg/kg i.d.) is 31%.

In the case of `COc1ccc2[nH]c([S+]([O-])Cc3ncc(C)c(OC)c3C)nc2c1` (stereo not shown) [omeprazole, reference compound], the EC50 with HCMV (strain AD169) came out at 93 µM.

For the molecule `COc1ccc(N)c(C[S+]([O-])c2nc3ccccc3[nH]2)c1` (stereo not shown) [Example 20, 2-[(1H-Benzimidazol-2-ylsulfinyl)methyl]-4-methoxybenzenamine], the melting point lay within 152 to 153 °C. In the series on gastric acid secretion [1] (iv, 3 mg/kg i.v.), the inhibition in vivo at 3 mg/kg is 37%. Also, in the series with gastric acid secretion [2], the “Pavlov-Pouch Dog % Inhibition (dose (mg/kg))” value is listed as 22 (3 mg/kg) %.

Consider `Cc1ccc2[nH]c([S+]([O-])Cc3ccccc3N)nc2c1` (stereo not shown) [Example 41, 2-[[(5-Methyl-1H-benzimidazol-2-yl)sulfinyl]-methyl]benzenamine], for which the melting point lay within 170 to 171 °C. Besides, the EC50 in the series on HCMV (strain AD169) worked out at 59 µM.

In the case of `Cc1ccc(C[S+]([O-])c2nc3ccccc3[nH]2)c(N)c1C` (stereo not shown) [Example 53, 2-[(1H-Benzimidazol-2-ylsulfinyl)methyl]-5,6-dimethylbenzenamine ¼ hydrate], the EC50 in the series with HCMV (strain AD169) came to 13 µM. Moreover, the inhibition in vivo at 3 mg/kg in the series on gastric acid secretion [1] (intraduodenal, 3 mg/kg i.d.) turned out to be 79%.
